In US12187773B2, “Modified GIP peptide analogues” (Antag Therapeutics ApS, priority 2018, dated 2025):
Read-outs that look alike come from different tables or passages of the source. Where a SMILES comes first, the peptide text is derived from it. The star is where a group is joined. C16 diacid = O=C(O)CCCCCCCCCCCCCCC(=O)*

Assays:
[1] = target: T1, GLP2 receptor (GLP2R) (Homo sapiens, UniProt O95838); test: cAMP assay - selectivity, antagonism at GLP2 receptor; assay type: cell-based; details: Table 3B; COS-7 cells; agonist GLP2
T1 construct: expressed in transfected cells; host or cells: COS-7 (transient)
T1 sequence (O95838 1-553): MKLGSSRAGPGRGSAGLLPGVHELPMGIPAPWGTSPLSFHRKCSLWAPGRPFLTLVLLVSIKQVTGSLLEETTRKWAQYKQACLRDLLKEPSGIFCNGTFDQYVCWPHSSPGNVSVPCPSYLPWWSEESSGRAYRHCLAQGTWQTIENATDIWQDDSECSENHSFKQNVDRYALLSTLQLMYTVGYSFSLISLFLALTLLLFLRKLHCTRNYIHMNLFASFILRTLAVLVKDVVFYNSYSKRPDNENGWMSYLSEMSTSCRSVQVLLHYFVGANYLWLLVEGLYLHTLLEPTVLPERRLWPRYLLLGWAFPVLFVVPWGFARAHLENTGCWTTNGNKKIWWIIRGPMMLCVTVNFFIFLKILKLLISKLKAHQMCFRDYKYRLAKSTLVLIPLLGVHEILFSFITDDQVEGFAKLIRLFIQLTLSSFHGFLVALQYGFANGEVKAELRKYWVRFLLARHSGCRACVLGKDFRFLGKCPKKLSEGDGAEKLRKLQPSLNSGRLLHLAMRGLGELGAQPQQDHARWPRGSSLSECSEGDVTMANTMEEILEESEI
Procedure: (§1) Transient transfected COS-7 cells expressing the either of the GLP1 receptor (GLP1R), GLP2 receptor (GLP2R), glucagon receptor (GcgR) or secretin receptor (SCTR) were seeded in white 96-well plates with a density of 3.5*10^4/well. The day after, the cells were washed twice with Hepes buffered saline (HBS) buffer and incubated with HBS and 1 mM 3-isobutyl-1-methylxanthine (IBMX) for 30 min at 37° C. To test for agonistic properties, ligands were added and incubated for 30 min at 37° C. In order to test for antagonistic properties, the cells were preincubated with the antagonists for 10 min prior to the addition the natural agonist for the expressed receptor (GLP1 for GLP1R expressing cells, GLP2 for GLP2R expressing cells, glucagon for the GcgR and secretin for the SCTR) and subsequent incubated for 20 additional min. […] The HitHunter™ cAMP XS assay (DiscoveRx) was carried out according to the manufacturer's instructions.

[2] = target: T2, human GIP receptor (Homo sapiens, UniProt P48546); test: cAMP accumulation, antagonism (DiscoveRx HitHunter cAMP XS assay); assay type: cell-based; parameters: host or cells: COS-7 (transient, calcium phosphate; pCMV-Script vector)
T2 sequence (P48546 22-466): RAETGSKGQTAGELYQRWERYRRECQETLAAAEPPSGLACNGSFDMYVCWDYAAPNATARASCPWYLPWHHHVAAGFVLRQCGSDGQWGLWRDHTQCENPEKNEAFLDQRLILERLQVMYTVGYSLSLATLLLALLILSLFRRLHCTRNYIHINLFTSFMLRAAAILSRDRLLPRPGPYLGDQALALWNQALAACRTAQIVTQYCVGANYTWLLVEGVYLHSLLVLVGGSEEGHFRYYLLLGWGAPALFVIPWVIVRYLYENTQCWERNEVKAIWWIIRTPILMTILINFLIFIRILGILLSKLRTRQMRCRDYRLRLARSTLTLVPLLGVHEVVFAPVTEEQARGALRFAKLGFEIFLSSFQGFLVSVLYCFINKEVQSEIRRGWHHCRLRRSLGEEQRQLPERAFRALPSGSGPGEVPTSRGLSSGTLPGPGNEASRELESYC
In short: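 Transiently transfected COS-7 cells expressing human GIP receptor, pretreated with 1 mM IBMX in HBS 30 min at 37 °C. Agonism: ligand 30 min at 37 °C; antagonism: 10 min antagonist preincubation, then GIP at 50-80% maximal response for 20 min. cAMP measured by HitHunter cAMP XS.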

[3] = target: T3, GLP1 receptor (GLP1R) (Homo sapiens, UniProt P43220); test: cAMP assay - selectivity, antagonism at GLP1 receptor; assay type: cell-based; details: Table 3A
T3 construct: expressed in transfected cells; host or cells: COS-7 (transient)
Procedure: as §1

[4] = target: T2, human GIP receptor; test: cAMP agonism (CisBio cAMP Dynamic 2 HTRF assay); assay type: cell-based
Procedure: To test for agonistic properties at the GIP receptor, compounds were diluted and added to cells as described above and incubated for 30 min at 37° C. The resulting increase in intracellular cAMP was determined using the CisBio cAMP Dynamic 2 HTRF Assay Kit as described above.

[5] = target: T4, glucagon receptor (GcgR) (Homo sapiens, UniProt P47871); test: cAMP assay - selectivity, antagonism at glucagon receptor; assay type: cell-based; details: Table 3A; COS-7 cells; agonist glucagon at 50-80% of maximal cAMP
T4 construct: expressed in transfected cells; host or cells: COS-7 (transient)
Procedure: as §1

[6] = target: T2, human GIP receptor; test: cAMP antagonism (CisBio cAMP Dynamic 2 HTRF assay); assay type: cell-based; parameters: pCMV-Script vector
In short: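 Four-parameter fits of cAMP dose-response gave pIC50. cAMP fall was quantified by HTRF competition, ratio 665/620 nm after 60 min at room temperature, against a cAMP standard curve.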

[7] = target: T5, secretin receptor (SCTR) (Homo sapiens, UniProt P47872); test: cAMP assay - selectivity, antagonism at secretin receptor; assay type: cell-based; details: Table 3B; COS-7 cells; agonist secretin
T5 construct: expressed in transfected cells; host or cells: COS-7 (transient)
Procedure: as §1

[8] = target: T2, human GIP receptor; test: cAMP accumulation, agonism (DiscoveRx HitHunter cAMP XS assay); assay type: cell-based; parameters: host or cells: COS-7 (transient, calcium phosphate; pCMV-Script vector); details: Table 1B; DiscoveRx; COS-7 cells
In short: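 cAMP accumulation measured by HitHunter cAMP XS in COS-7 cells transiently expressing human GIP receptor, after 30 min in HBS with 1 mM IBMX at 37 °C. Antagonists preincubated 10 min before GIP giving 50-80% of maximum, then 20 min more; agonist mode used 30 min ligand exposure.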

[9] = Elimination half-life (T1/2) estimated in Göttingen minipigs; assay type: in vivo
Procedure: 2-3 Göttingen minipigs were subcutaneously administered one of the GIP analogues of the present invention (1-10 nmol/kg, total volume 2-6 mL) and blood samples were collected before and up to 432 hours post subcutaneous administration.) from a central venous catheter. The catheter was flushed with saline and heparin between samples. Blood was collected into cold EDTA tubes, centrifuged and plasma was kept at −20° C. pending analyses.
Concentrations of the acylated GIP(3-30)NH2 or GIP(5-30)NH2 analogues in blood samples from Göttingen minipigs were analyzed by RIA. Analogues' immunoreactivity was determined using antiserum Ab95234, Ab95235, Ab95236, a polyclonal in-house antibody raised in rabbits specific for either the mid region of GIP(1-30)NH2 or amidated C-terminus of GIP(3-30)NH2.
In addition to the hormone analysis, blood concentrations of AT374, 380, 382-385, 392-393 were determined by LC/MS performed by Red Glead Discovery AB, Lund, Sweden. The plasma samples were precipitated by addition of 3 parts ethanol followed by thorough mixing. After centrifugation and dilution of the supernatant, the samples were analyzed by LC-MS/MS and compared with a 9-point calibration curve. The calibration curves were prepared in naïve plasma matrix from Göttingen minipigs.

[10] = Table 3A/3B, DiscoveRx, COS-7 cells
[11] = GIPR, Antagonism, nM, Table 3C, CisBio assay
[12] = Table 1C, CisBio, HEK-293 cells
[13] = cAMP antagonism, nM (IC50), Table 1C, CisBio, HEK-293 cells, agonist GIP1-42 at EC50

T3 sequence (P43220 24-463, species assumed): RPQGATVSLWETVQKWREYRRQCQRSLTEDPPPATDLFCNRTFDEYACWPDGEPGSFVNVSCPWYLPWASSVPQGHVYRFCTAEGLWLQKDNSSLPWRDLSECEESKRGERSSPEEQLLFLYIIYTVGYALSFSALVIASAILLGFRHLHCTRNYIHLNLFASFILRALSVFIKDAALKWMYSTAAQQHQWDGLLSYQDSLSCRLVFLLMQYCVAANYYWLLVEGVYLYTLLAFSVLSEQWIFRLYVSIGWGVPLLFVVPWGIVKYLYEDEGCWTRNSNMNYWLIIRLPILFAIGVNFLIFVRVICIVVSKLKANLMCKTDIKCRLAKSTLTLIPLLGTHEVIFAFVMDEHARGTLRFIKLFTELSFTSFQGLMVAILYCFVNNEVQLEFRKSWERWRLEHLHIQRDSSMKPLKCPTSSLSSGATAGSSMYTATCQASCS
T4 sequence (P47871 26-477, species assumed): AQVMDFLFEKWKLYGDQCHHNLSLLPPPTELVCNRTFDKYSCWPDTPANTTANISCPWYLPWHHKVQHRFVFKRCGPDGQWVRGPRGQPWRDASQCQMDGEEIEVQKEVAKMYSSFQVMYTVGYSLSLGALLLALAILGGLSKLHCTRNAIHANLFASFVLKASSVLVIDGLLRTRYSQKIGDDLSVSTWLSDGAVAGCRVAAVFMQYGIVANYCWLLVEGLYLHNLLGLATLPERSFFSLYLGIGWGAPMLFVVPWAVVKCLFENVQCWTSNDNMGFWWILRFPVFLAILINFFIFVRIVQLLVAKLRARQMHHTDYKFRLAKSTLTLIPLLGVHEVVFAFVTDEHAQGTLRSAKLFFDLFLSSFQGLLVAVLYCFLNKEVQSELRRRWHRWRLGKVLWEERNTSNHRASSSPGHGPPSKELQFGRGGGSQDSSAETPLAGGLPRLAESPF
T5 sequence (P47872 23-440, species assumed): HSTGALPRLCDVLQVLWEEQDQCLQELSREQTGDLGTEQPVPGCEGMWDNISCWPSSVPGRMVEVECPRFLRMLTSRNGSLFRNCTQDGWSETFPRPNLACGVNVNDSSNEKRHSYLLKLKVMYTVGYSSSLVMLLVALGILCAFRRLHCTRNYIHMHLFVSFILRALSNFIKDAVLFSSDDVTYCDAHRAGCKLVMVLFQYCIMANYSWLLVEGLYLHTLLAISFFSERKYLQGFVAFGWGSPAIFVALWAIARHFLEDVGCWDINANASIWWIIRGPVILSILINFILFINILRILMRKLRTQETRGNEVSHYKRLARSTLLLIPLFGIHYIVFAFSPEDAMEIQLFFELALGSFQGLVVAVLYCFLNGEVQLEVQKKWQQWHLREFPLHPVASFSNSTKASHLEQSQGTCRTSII

CC[C@H](C)[C@H](NC(=O)[C@H](CO)NC(=O)[C@H](Cc1ccc(O)cc1)NC(=O)[C@H](CC(=O)O)NC(=O)[C@H](CO)NC(=O)[C@@H](NC(=O)[C@@H](N)Cc1ccccc1)[C@@H](C)CC)C(=O)N[C@@H](C)C(=O)N[C@@H](CCSC)C(=O)N[C@@H](CC(=O)O)C(=O)N[C@@H](CCCCN)C(=O)N[C@H](C(=O)N[C@@H](CCCCNC(=O)CCCCCCCCCCCCCCC(=O)O)C(=O)N[C@@H](CCC(N)=O)C(=O)N[C@@H](CCC(N)=O)C(=O)N[C@@H](CC(=O)O)C(=O)N[C@@H](Cc1ccccc1)C(=O)N[C@H](C(=O)N[C@@H](CC(N)=O)C(=O)N[C@@H](Cc1c[nH]c2ccccc12)C(=O)N[C@@H](CC(C)C)C(=O)N[C@@H](CC(C)C)C(=O)N[C@@H](C)C(=O)N[C@@H](CCC(N)=O)C(=O)N[C@@H](CCCCN)C(N)=O)C(C)C)[C@@H](C)CC [AT353] (H-FISDYSIAMDKIK(C16 diacid)QQDFVNWLLAQK-NH2; N-terminus assumed)
GLP-2R, Antagonism [1]: No antagonism
IC50 ([2]; GIPR, Antagonism, nM, Table 3A/3B, DiscoveRx, COS-7 cells): 9 nM
IC50 ([2]; IC50-value (GIPR antagonism), Examples 1 and 2, values of Tables 1B and 2): 9 nM
cAMP antagonism, % inhib ([2]; Table 2, truncated GIP antagonists): 100.0%
GIPR, Antagonism, % inhib [2, 10]: 100.0%
IC50 ([2]; cAMP antagonism, nM (IC50), Table 2, truncated GIP antagonists): 9 nM
GLP-1R, Antagonism, %inhib ([3]; COS-7 cells): 43%
GLP-1R, Antagonism, index ([3]; selectivity index versus GIPR): 44
Emax ([4]; HEK293, read-out: cAMP agonism, % Efficacy, Table 1C, HEK-293 cells): 0%
Glucagon R, Antagonism, nM [5]: No antagonism
IC50 [6, 11]: 25.1 nM
cAMP antagonism, % inhib [6, 12]: 90%
GIPR, Antagonism, % inhib ([6]; Table 3C, CisBio assay): 90%
IC50 [6, 13]: 25.1 nM
Secretin R, Antagonism [7]: No antagonism

CC[C@H](C)[C@H](NC(=O)[C@H](CO)NC(=O)[C@H](Cc1ccc(O)cc1)NC(=O)[C@H](CC(=O)O)NC(=O)[C@H](CO)NC(=O)[C@@H](NC(=O)[C@H](Cc1ccccc1)NC(=O)[C@@H](NC(=O)CNC(=O)[C@@H](N)CO)[C@@H](C)O)[C@@H](C)CC)C(=O)N[C@@H](C)C(=O)N[C@@H](CCSC)C(=O)N[C@@H](CC(=O)O)C(=O)N[C@@H](CCCNC(=N)N)C(=O)N[C@H](C(=O)N[C@@H](CCCCNC(=O)CCCCCCCCCCCCCCC(=O)O)C(=O)N[C@@H](CCC(N)=O)C(=O)N[C@@H](CCC(N)=O)C(=O)N[C@@H](CC(=O)O)C(=O)N[C@@H](Cc1ccccc1)C(=O)N[C@H](C(=O)N[C@@H](CC(N)=O)C(=O)N[C@@H](Cc1c[nH]c2ccccc12)C(=O)N[C@@H](CC(C)C)C(=O)N[C@@H](CC(C)C)C(=O)N[C@@H](C)C(=O)N[C@@H](CCC(N)=O)C(=O)N[C@@H](CCCNC(=N)N)C(N)=O)C(C)C)[C@@H](C)CC [AT392] (H-SGTFISDYSIAMDRIK(C16 diacid)QQDFVNWLLAQR-NH2; N-terminus assumed)
cAMP antagonism, % inhib ([2]; Table 1B, DiscoveRx, COS-7 cells, % inhibition of Emax): 93%
GIPR, Antagonism, % inhib [2, 10]: 93.0%
IC50 ([2]; cAMP antagonism, nM (IC50), Table 1B, DiscoveRx, transiently transfected COS-7 cells): 1 nM
GLP-1R, Antagonism, nM ([3]; COS-7 cells, agonist GLP1 at 50-80% of maximal cAMP): No antagonism
cAMP agonism, % Efficacy ([4]; Table 1C, HEK-293 cells): 0%
cAMP agonism, Emax [8]: No Agonism
IC50 [6, 11]: 68.1 nM
cAMP antagonism, % inhib [6, 12]: 96%
GIPR, Antagonism, % inhib ([6]; Table 3C, CisBio assay): 96%
IC50 [6, 13]: 68.1 nM
half-life ([9]; Göttingen, minipig, plasma, subcutaneous, Example 1, read-out: T1/2 (converted)): 6 h
half-life ([9]; sc, Table 1B, species not given, unit h, LC/MS in Göttingen minipig plasma for these IDs, subcutaneous 1-10 nmol/kg, read-out: T½ (converted)): 6 h
